Data published in ChEMBL document CHEMBL1201862, “PubChem BioAssay data set” (2004).
Each block holds one molecule with its values, some of them ahead of it. Active and inactive are the calls of the source.

How the values were obtained:
[1] = Counterscreen for AddAB inhibitors: absorbance-based bacterial cell-based high throughput dose response assay for inhibitors of bacterial viability. [Related pubchem assays (depositor defined):AID435030, AID449728, AID449731, AID488942, AID488955, AID488956]; assay type: functional
[2] = Trypanosoma cruzi growth suppression in host cells – NIH3T3 host cells, beta-gal luminescence, confirmation (AID 2044); assay type: functional, cell-based;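 also: intracellular parasites grown in NIH/3T3 mouse fibroblasts as host cells; luminescent beta-galactosidase reporter signal from transgenic T. cruzi replicating inside host cells; inhibitors lower the luminescence signal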
[3] = target: T1, Serine/threonine-protein phosphatase (Candida dubliniensis (strain CD36 / CBS 7987 / NCPF 3949 / NRRLY-17841) (Yeast), UniProt B9W6M3); assay: blockers of CaCl2-induced CDRE-lacZ signaling – S. cerevisiae, luminescence, secondary, dose response (AID 2388); assay type: functional, cell-based;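 also: yeast reporter cells carrying a calcineurin-responsive lacZ construct stimulated with calcium chloride; luminescent beta-galactosidase reporter signal in whole cells rather than isolated phosphatase activity; potency for inhibition where a drop in reporter signal means calcineurin blockade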
T1 sequence (B9W6M3 whole entry): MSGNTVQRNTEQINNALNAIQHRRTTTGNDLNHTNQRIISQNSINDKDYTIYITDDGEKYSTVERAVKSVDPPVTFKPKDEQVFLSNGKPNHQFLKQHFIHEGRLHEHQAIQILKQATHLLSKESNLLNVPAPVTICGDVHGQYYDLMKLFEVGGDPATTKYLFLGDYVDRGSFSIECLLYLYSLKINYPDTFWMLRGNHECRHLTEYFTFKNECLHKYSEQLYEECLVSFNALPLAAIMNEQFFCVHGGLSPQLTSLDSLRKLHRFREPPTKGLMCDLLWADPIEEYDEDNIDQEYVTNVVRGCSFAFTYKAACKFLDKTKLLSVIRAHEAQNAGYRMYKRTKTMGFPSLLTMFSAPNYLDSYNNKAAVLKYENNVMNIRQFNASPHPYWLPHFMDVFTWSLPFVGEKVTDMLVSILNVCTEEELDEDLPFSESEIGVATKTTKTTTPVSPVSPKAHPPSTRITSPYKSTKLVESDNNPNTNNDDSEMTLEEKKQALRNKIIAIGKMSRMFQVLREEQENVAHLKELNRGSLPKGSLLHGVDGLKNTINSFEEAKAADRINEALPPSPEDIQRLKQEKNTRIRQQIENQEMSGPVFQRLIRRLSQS

Genome polyprotein = Genome polyprotein (dengue virus type 2, UniProt P29990); assay: flavivirus cap methylation enzyme inhibition – biochemical, confirmation dose response, primary screen (AID 588689); assay type: functional
Sequence of Genome polyprotein (P29990 2492-3391 limits assumed): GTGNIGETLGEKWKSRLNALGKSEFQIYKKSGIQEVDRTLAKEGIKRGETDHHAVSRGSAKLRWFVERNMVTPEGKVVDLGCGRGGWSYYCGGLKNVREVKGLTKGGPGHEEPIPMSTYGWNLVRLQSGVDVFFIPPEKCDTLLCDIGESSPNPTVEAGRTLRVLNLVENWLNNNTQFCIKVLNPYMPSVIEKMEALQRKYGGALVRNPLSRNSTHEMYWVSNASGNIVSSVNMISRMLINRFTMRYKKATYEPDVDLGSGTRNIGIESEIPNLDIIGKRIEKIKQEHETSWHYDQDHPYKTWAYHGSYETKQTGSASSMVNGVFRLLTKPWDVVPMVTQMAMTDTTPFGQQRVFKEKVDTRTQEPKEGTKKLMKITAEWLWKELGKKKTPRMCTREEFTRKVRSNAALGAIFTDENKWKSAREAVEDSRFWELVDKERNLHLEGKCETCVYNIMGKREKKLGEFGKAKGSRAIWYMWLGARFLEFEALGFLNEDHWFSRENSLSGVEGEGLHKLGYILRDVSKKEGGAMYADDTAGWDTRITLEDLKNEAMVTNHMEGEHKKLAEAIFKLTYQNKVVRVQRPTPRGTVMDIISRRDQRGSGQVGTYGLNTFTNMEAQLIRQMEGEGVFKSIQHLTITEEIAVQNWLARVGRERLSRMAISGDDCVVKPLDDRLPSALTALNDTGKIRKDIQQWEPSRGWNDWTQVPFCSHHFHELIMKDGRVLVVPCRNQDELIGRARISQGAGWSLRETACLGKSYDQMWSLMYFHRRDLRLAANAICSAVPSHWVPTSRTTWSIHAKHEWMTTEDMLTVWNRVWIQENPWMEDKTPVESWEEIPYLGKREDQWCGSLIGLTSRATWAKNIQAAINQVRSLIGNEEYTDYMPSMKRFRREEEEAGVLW

Insulin-degrading enzyme = target: T2, Insulin-degrading enzyme (Homo sapiens, UniProt P14735); assay: cellular IDE activation of Abeta substrate cleavage – fluorescence polarization, HEK cells, dose response (AID 588439); assay type: functional, cell-based
T2 sequence (P14735 whole entry): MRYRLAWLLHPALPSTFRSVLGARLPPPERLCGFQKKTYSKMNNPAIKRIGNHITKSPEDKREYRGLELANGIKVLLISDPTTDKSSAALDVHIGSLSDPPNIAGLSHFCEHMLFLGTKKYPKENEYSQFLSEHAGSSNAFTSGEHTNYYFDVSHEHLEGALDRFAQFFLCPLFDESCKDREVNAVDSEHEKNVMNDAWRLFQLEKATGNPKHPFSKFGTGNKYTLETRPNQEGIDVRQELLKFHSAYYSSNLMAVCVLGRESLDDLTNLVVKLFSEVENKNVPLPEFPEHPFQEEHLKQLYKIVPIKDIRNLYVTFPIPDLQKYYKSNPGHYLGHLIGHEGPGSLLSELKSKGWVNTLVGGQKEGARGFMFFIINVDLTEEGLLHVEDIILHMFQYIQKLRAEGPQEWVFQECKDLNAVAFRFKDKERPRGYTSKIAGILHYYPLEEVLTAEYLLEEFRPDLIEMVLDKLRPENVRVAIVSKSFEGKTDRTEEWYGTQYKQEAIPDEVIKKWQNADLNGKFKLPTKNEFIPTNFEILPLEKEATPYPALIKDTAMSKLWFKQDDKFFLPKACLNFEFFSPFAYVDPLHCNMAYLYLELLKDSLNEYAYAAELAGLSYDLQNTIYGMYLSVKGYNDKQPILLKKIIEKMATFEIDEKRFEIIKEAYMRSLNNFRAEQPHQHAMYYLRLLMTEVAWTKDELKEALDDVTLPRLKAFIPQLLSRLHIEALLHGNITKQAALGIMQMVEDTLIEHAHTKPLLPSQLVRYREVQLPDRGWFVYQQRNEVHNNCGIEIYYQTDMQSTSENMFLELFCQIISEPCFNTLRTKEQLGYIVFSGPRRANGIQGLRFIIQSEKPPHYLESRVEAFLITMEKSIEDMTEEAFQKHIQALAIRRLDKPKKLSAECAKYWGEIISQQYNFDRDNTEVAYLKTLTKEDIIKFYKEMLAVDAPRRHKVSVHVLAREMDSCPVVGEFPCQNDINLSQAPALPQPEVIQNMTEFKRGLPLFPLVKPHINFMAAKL

[4] = target: Serine/threonine-protein kinase Nek2 (Homo sapiens, UniProt P51955); assay type: functional
Sequence of Serine/threonine-protein kinase Nek2 (P51955 whole entry): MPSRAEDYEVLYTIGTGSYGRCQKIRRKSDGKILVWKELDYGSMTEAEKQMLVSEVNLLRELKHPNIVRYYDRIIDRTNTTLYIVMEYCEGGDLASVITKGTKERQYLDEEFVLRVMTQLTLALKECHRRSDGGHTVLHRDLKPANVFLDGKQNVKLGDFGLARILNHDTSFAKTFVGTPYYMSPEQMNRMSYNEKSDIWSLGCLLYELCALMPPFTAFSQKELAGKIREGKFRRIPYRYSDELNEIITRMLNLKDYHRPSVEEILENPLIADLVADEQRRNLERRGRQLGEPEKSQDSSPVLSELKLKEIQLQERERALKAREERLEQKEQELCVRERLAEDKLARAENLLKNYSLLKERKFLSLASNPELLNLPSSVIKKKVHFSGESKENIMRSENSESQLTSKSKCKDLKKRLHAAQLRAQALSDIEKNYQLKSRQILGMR

[5] = target: T3, Sentrin-specific protease 7 (Homo sapiens, UniProt Q9BQF6); assay type: functional;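 also: Luminescence-based dose-response confirmation of ultra-high-throughput screening hits, measuring inhibition of SENP7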
T3 sequence (Q9BQF6 whole entry): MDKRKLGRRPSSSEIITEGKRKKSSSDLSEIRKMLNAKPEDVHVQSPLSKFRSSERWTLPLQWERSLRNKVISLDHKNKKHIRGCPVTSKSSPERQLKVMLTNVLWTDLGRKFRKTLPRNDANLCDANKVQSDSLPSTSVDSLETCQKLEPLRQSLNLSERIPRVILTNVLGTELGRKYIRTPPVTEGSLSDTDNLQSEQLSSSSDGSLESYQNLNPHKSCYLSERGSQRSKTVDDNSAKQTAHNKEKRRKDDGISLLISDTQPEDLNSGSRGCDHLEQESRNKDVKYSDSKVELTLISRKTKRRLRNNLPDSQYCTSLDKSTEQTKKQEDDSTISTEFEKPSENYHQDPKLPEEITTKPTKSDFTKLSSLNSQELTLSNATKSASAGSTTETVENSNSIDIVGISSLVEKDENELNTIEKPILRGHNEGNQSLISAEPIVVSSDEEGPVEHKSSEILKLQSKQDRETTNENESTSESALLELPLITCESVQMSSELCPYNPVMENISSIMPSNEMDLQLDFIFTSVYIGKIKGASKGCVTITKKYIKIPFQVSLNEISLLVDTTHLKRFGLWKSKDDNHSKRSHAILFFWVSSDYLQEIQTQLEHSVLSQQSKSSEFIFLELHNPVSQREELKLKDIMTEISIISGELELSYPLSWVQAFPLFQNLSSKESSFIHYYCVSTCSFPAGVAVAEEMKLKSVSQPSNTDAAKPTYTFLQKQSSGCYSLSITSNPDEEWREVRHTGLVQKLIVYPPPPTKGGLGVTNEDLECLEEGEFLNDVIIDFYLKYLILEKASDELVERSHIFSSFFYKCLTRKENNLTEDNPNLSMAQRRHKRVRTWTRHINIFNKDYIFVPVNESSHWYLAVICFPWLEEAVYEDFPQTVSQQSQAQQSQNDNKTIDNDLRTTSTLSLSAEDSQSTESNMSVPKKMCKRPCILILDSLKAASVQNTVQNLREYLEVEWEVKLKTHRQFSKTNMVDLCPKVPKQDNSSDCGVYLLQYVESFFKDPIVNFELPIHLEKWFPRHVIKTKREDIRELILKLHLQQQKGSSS

SMILES: CC(C)CC(=O)NC(c1cccs1)c1ccc2cccnc2c1O (configuration not stated)
- IC50 [1]: > 119 µM (inactive)
- EC50 [2]: 0.489 µM (active)
- EC50 [3]: > 180 µM (inactive)

SMILES: CCOC(=O)c1ccc(NC2=CC(=O)C(=O)c3ccccc32)cc1
- IC50 (Genome polyprotein): > 100 µM (active)

SMILES: OC(CNCCC1C=Nc2ccccc21)Cn1c2ccc(Cl)cc2c2cc(Cl)ccc21 (configuration not stated)
- EC50 (Insulin-degrading enzyme): > 54.7 µM (inactive)

- Ki [4]: > 3.16 µM (inactive)
SMILES: O=C(O)C1CN(Cc2ccc(OCc3ccccc3)cc2Cl)C1

- IC50 [5]: 1.67 µM (active)
SMILES: COc1ccc(C(=O)c2nccc3cc(OC)c(OC)cc23)cc1OC
